The test system of this experiment is ACE2. Briefly: Western blot analysis of amount of ACE2 protein expressed in HepG2 cells. The experiment is classed as cell-based, human. The following applies: compared to control (untreated). The procedure:
(i) Human liver cancer-derived cell strain HepG2 was cultured for 2 days with Dulbecco's modified Eagle medium (DMEM) comprising 10% fetal bovine serum (FBS) under 5% CO2.
(ii) After 2 days, 5-aminolevulinic acid hydrochloride salt (ALA) was supplemented to the DMEM comprising FBS to a final concentration of 1 mM, and the cells of (i) were cultured in said medium at 37° C. for 48 hours. Note that those without any supplements was set as the control.
(iii) After 48 hours, the cell supernatant was discarded, the cells were washed with PBS, and then Lysis buffer A (+) (50 mM Tris-HCl (pH 7.4), 20 mM N-methylmaleimide, 1 mM DTT, 1% (v/v) Triton X-100, and Protease inhibitor cocktail) was added, and the cell lysate was collected. Homogenization and centrifugation (3,000 rpm, 10 minutes, 4 °C) were then performed, and the residue was removed. A part of the cell lysate collected was quantified for proteins with the Bradford method, and the remainder was mixed with SDS sample buffer (50 mM Tris-HC1, pH 6.8, 2% SDS, 2.5% mercaptoethanol, 10% glycerol, 0.01% bromophenol blue), and stored frozen at −30° C. The prepared sample was subjected to 7.5% SDS-polyacrylamide electrophoresis, the 7.5% SDS-polyacrylamide gel after electrophoresis was transferred to a membrane, and the transfer was confirmed with
Ponceau S solution. After the transfer was confirmed, Western blot analysis employing rabbit anti-human ACE2 antibody (Abcom, ab108252) and HRP-labeled anti-rabbit IgG secondary antibody (Cell Signaling Technology, 7074S) was performed by conventional means.
As internal standards, each sample was subjected to 7.5% SDS-polyacrylamide electrophoresis, the 7.5% SDS-polyacrylamide gel after electrophoresis was transferred to a membrane, and the transfer was confirmed with Ponceau S solution. After the transfer was confirmed, Western blot analysis employing mouse anti-human actin antibody (MP biomedicals, 691001) and HRP-labeled anti-mouse IgG secondary antibody (Cell Signaling Technology, 7076S) was performed by conventional means. […]
For orientation: Immunoblotting shows a protein as a band on a membrane.

In the case of `Cl.NCC(=O)CCC(=O)O` [ALA, 5-aminolevulinic acid hydrochloride salt], the “amount of ACE2 protein expressed” value (Experiment 1, ALA 1 mM, 48 hours) is “significantly reduced” and the “amount of ACE2 protein expressed” value (Experiment 2, ALA 1 mM) was “reduced”.
Turning to sodium ferrous citrate [SFC], the “amount of ACE2 protein expressed” value (Experiment 2, SFC only 0.5 mM) is given as “no reduction”.

The values above are taken from US20240189269A1, “PHARMACEUTICAL COMPOSITION FOR SUPPRESSING TMPRSS2 EXPRESSION” (Tokyo Institute of Technology, priority 2021, published 2024).
